From patent US20190202836A1, “SELECTIVE DUAL INHIBITORS OF PI3 DELTA AND GAMMA PROTEIN KINASES” (Rhizen Pharmaceuticals SA, priority 2014, published 2019)

Key:
[1] = Plasma protein binding (equilibrium dialysis), monkey; format: in vitro ADME; settings: pH 7.4, 37° C.
Description: (§1) Below is provided the procedure for measuring plasma protein binding (using an equilibrium dialysis method). 745 μL of plasma was transferred into a 2 ml micro centrifuge tube. To that 5 μL of Compound A1 (150 μM) was added. Samples were mixed in the table top vortexer for 2 minutes. 50 μL plasma (n=2) was transferred in a pre-labeled 1.5 mL micro centrifuge tube treated as 0 hour sample.
(§2) The remaining 650 μL plasma sample were incubated for 30 minutes at 37° C. in a water bath. After 30 minute incubation, 50 μL plasma (n=2) was removed in a pre-labelled 1.5 mL micro centrifuge tube treated as 0.5 hour sample. 200 μL of the plasma sample (n=2) was transferred into the sample chamber which was indicated by the red ring. The red insert was placed into the base plate and 350 μL of buffer was transferred into the buffer chamber. Plates were incubated at 37° C. at approximately 100 RPM on an orbital shaker or 20 RPM on an up-and-down shaker for 4 hours. 50 μL of post dialysis-sample from the buffer and the plasma chambers were transferred into a pre-labelled micro centrifuged tube. 50 μL of plasma was added to the buffer samples and an equal volume of buffer (KH2PO4 Buffer pH 7.4) to the collected plasma samples. 150 μL of methanol containing internal standard (Tolbutamide 250 ng/ml) was added to precipitate the protein and release compound. […]

[2] = system: pAKT in isolated mouse splenocytes; assay: Assay 6C: Inhibition of AKT phosphorylation in isolated mouse splenocytes; format: cell-based; settings: Splenocyte, 0.5 h, LPS 20 μg/mL, 30 minutes, ELISA, read-out: EC50, reduction in phosphorylation of AKT
Description: The PI3K pathway is regulated downstream by AKT, a serine-threonine kinase that modulates several oncogenic processes such as cell proliferation, growth, and survival. Because the spleen is a repertoire for vast quantities of B- and T-lymphocytes, inhibition of LPS-induced AKT phosphorylation was determined ex vivo using isolated mouse splenocytes. Cells were plated and incubated with a desired concentration of Compound A1 for 15 minutes followed by induction with LPS (20 μg/mL) for 30 minutes. Following induction, cells were lysed and pAKT was determined by ELISA using pAKT^S473 capture/detection antibody pair and anti-mouse-HRP secondary antibody. Blank subtracted absorbance values were obtained to calculate percent inhibition of pAKT in test samples.

PI3Kα = PI3Kα (Homo sapiens, UniProt P42336); assay: Assay 1: Fluorescent (HTRF) determination of PI3 kinase enzyme activity, PI3Kα; format: biochemical
Excerpt: Phosphoinositide 3 kinases (PI3K) belong to a class of lipid kinases that play a critical role in the regulation of several key cellular processes. The PI3K are capable of phosphorylating the 3-hydroxy position of phosphoinositols thereby generating second messengers involved in downstream signaling events. The homogenous time resolved fluorescence (HTRF) assay allows detection of 3,4,5-triphosphate (PIPS) formed as a result of phosphorylation of phosphotidylinositol 4,5-biphosphate (PIP2) by PI3K isoforms such as α, β, γ or δ.
PI3K isoform activity for α, β, γ or δ was determined using a PI3K human HTRF™ Assay Kit (Millipore, Billerica, Mass.) with modifications. All incubations were carried out at room temperature. 0.5 μl of 40× inhibitor (in 100% DMSO) or 100% DMSO were added to each well of a 384-well white plate (Greiner Bio-One, Monroe, N.C.) containing 14.5 μl 1× reaction buffer/PIP2 (10 mM MgCl2, 5 mM DTT, 1.38 μM PIP2) mix with or without enzyme, followed by 5 μl/well of 400 μM ATP and incubated for an additional 30 minutes. The reaction was terminated by adding 5 μl/well stop solution (Millipore, Billerica, Mass.). 5 μl of detection mix (Millipore, Billerica, Mass.) was then added to each well and incubated for 6-18 hours in the dark. HRTF ratio was measured on a microplate reader (BMG Labtech., Germany) at an excitation wavelength of 337 nm and emission wavelengths of 665 and 615 nm with an integration time of 400 msec counting delay of 50 msec.

[3] = Metabolic stability in dog liver microsomes; format: in vitro ADME
[4] = Plasma protein binding (equilibrium dialysis), mouse; format: in vitro ADME; settings: pH 7.4, 37° C.
Description: as §1, §2

male Balb/c mice = assay: Assay 13: Imiquimod induced plaque psoriasis in Balb/c mice model; format: in vivo; settings: imiquimod induced psoriasis, 3, 10, 30 mg/kg oral, compared to the control group
Description: Imiquimod (IMQ) is a ligand for TLR7 and TLR8, originally used for the treatment of non-melanoma skin cancers. […] Animals (male Balb/c mice) were acclimatized for seven days prior to the start of the experiment. Animals were randomly distributed to various groups based on their body weights. On day 0, the back skin of the mice was shaved by topical application of hair removal cream. On day 1, mice were administered the test compound or vehicle by the oral route and after 1 hour the […] received a topical application of 62.5 mg of commercially available IMQ cream (5%; Beselna Cream; Mochida Pharmaceuticals, Tokyo, Japan) on the shaved back skin. The mice were treated with topical application of imiquimod for the next 5 consecutive days, one hour after test compound or vehicle administration. Animals were allowed to dry for one hour before returning to their cages after topical application on every day. Four hours after the final application of IMQ cream, the mice were killed and skin samples were obtained. Back skin thickness was measured using dial thickness gauge. After measuring skin thickness, skin samples were fixed in 10% neutral buffered formalin solution and embedded in paraffin. Deparaffinised sections were stained with hematoxylin-eosin (HE). Epidermal thickness was quantified by averaging the values of five independent fields per section. To score the severity of inflammation of the back skin, an objective scoring system was used based on the human clinical Psoriasis Area and Severity Index (PASI). Erythema, scaling, and thickening were scored independently on a scale from 0 to 4: 0=none; 1=slight; 2=moderate; 3=marked; and 4=very marked.

IL-4 = assay: Assay 6A: Cytokine assay in human PBMC, PHA induced IL-4; format: cell-based; settings: PHA 20 μg/ml, 48 hours, 2-3 independent experiments, read-out: EC50, antigen-induced IL-4
Description: The objective of this study was to assess the inhibitory potential of Compound A1 on antigen-induced cytokine release in human PBMC
• Heparinized human whole blood was diluted 1:1 with PBS, over laid on leukocyte separation medium and centrifuged at 400 g for 40 minutes. • Buffy layer was removed and washed with PBS • 0.15*10^6 of PBMCs were plated in 100 μl per well in RPMI media and incubated for 2 h. • 50 μl of 3× of the compound dilution in media was added and incubated for 15 min. • TNFα—induced with 50 μl of LPS in RPMI such that final concentration was 1 μg/ml. Supernatant was collected at 6 hours. • IL-2-induced with 50 μl of PHA in RPMI such that final concentration was 20 μg/ml. Supernatant was collected at 24 hours. • IL-4-induced with 50 μl of PHA in RPMI such that final concentration was 20 μg/ml.
EC50 values were calculated from 2-3 independent experiments.

Chain of PI3Kα (P42336 whole entry, canonical isoform): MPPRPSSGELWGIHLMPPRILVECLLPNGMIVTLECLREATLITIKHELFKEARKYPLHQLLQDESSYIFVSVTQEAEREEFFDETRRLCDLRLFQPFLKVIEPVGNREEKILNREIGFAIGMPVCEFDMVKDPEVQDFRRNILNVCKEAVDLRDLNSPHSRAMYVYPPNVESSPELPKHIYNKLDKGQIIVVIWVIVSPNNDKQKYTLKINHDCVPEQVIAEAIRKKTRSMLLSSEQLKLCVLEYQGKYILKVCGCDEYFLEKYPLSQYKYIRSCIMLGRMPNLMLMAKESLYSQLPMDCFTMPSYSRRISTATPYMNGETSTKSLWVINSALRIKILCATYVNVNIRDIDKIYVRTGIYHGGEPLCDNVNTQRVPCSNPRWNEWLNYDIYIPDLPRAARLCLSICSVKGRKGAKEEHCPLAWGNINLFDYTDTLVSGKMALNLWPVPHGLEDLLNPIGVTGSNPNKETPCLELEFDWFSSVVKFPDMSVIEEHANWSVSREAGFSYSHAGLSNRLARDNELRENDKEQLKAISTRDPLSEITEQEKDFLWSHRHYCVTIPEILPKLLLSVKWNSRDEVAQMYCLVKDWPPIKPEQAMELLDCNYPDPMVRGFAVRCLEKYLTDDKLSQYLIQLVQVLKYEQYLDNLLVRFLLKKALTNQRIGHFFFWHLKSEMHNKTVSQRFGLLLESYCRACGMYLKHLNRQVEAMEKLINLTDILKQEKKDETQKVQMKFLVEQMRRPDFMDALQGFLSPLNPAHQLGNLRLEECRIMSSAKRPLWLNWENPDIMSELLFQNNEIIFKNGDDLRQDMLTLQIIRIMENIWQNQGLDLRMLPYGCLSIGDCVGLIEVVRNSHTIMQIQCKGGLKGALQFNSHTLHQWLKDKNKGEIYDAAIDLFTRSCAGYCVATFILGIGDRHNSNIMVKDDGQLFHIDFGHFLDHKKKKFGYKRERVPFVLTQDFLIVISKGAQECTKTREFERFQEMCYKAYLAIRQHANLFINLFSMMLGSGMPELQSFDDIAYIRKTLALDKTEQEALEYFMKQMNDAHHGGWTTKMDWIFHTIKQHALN
Chain of PI3Kα (P27986 whole entry partner, canonical isoform): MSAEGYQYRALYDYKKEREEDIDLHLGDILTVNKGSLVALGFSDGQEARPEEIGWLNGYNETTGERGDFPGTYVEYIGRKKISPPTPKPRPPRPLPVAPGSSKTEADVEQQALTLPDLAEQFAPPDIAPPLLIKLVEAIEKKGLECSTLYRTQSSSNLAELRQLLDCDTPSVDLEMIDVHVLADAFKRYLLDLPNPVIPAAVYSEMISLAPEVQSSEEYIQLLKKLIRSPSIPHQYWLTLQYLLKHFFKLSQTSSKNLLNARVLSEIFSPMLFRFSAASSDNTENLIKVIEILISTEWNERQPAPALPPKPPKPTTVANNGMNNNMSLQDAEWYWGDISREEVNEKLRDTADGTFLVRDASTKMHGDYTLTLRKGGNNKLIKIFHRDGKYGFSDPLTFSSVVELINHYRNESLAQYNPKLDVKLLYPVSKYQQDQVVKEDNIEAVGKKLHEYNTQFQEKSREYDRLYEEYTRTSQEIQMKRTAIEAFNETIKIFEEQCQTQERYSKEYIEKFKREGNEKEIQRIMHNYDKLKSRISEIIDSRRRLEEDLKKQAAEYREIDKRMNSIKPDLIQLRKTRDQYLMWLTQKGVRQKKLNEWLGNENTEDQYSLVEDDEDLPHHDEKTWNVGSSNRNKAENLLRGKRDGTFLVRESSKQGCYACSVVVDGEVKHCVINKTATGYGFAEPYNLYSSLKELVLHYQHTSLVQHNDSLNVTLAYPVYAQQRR

SMILES: COc1ccc(-c2nn([C@@H](C)c3oc4cccc(F)c4c(=O)c3-c3cccc(F)c3)c3ncnc(N)c23)cc1NS(C)(=O)=O [Compound A1, (S)—N-(5-(4-amino-1-(1-(5-fluoro-3-(3-fluorophenyl)-4-oxo-4H-chromen-2-yl)ethyl)-1H-pyrazolo[3,4-d]pyrimidin-3-yl)-2-methoxyphenyl)methanesulfonamide]
- fraction unbound at 4 h, 1 μM [1]: 0.0529
- EC50 [2]: 0.347 µM
- inhibition at 10 µM (PI3Kα): 23%
- IC50 (PI3Kα; HTRF enzyme assay): > 10000 nM
- Fold-Selectivity PI3Kα (PI3Kα; selectivity profile, enzyme IC50): >329 fold
- Metabolic stability in liver microsomes (percent parent compound remaining), Dog [3]: 83.5%
- fraction unbound at 4 h, 1 μM [4]: 0.0239
- back skin thickness (male Balb/c mice): reduced
- erythema (male Balb/c mice): reduced
- scaling (male Balb/c mice): reduced
- EC50 (IL-4): 0.0035 µM
